From ChEMBL document CHEMBL2074223 (Mol Pharmacol, 2000)

What was measured:
Type in all cases: functional, cell-based
[1] = target: T1, ATP-dependent translocase ABCB1 (Homo sapiens, UniProt P08183); assay: (§1) TP_TRANSPORTER: intracellular accumulation in MDR1-expressing LLC-PK1 cells; conditions: pig
[2] = target: T2, Bile salt export pump (Mus musculus, UniProt Q9QY30); assay: (§2) TP_TRANSPORTER: intracellular accumulation in Bsep-expressing LLC-PK1 cells; conditions: pig
T2 sequence (Q9QY30 whole entry): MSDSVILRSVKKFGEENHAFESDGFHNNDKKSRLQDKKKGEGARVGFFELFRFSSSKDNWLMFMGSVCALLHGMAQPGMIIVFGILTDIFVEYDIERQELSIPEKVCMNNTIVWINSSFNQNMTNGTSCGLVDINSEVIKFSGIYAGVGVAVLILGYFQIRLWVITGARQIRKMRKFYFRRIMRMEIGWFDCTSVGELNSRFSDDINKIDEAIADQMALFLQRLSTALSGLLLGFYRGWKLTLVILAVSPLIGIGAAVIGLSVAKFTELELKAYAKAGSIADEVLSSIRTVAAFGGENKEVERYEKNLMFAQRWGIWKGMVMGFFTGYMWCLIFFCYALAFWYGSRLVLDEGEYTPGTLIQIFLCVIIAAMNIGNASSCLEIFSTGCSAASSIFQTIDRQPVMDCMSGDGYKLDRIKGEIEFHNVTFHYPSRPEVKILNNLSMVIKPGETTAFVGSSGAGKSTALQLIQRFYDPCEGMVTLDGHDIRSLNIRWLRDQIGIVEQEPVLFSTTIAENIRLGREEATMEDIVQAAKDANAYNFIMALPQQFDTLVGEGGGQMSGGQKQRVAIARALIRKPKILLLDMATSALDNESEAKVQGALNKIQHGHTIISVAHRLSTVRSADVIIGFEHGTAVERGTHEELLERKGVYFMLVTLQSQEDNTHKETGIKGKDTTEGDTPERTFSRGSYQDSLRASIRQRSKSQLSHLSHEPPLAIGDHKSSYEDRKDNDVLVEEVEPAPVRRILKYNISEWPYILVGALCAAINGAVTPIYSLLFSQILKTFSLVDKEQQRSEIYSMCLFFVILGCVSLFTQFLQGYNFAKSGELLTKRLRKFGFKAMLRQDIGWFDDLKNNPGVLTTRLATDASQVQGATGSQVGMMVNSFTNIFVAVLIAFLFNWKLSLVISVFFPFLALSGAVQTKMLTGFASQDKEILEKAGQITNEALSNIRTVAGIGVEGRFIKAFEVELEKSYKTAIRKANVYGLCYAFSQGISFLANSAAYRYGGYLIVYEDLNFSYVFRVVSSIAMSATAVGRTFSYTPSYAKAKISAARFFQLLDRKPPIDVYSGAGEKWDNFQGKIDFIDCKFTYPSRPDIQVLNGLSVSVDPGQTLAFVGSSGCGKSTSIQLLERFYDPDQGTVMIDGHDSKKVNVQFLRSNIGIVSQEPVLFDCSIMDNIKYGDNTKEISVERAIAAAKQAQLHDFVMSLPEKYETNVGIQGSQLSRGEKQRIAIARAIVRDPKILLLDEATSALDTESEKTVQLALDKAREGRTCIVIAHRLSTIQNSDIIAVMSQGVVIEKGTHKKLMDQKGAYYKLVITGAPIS

[3] = target: T1, ATP-dependent translocase ABCB1; assay: TP_TRANSPORTER: increase in Calcein-AM intracellular accumulation (Calcein-AM: 1 uM, Ditekiren: 20 uM) in MDR1-expressing LLC-PK1 cells; conditions: pig, llc-pk1, 20 µM
[4] = target: T2, Bile salt export pump; assay: TP_TRANSPORTER: increase in Calcein-AM intracellular accumulation (Calcein-AM: 1 uM, Ditekiren: 20 uM) in Bsep-expressing LLC-PK1 cells; conditions: pig, llc-pk1, 20 µM
[5] = target: T2, Bile salt export pump; assay: TP_TRANSPORTER: increase in Calcein-AM intracellular accumulation (Calcein-AM: 1 uM, Reserpine: 20 uM) in Bsep-expressing LLC-PK1 cells; conditions: pig, llc-pk1, 20 µM
[6] = tested on: CC[C@]1(O)C[C@@H]2CN(CCc3c([nH]c4ccccc34)[C@@](C(=O)OC)(c3cc4c(cc3OC)N(C)[C@H]3[C@@](O)(C(=O)OC)[C@H](OC(C)=O)[C@]5(CC)C=CCN6CC[C@]43[C@@H]65)C2)C1; assay: as §1
[7] = substrate: CC[C@]1(O)C[C@@H]2CN(CCc3c([nH]c4ccccc34)[C@@](C(=O)OC)(c3cc4c(cc3OC)N(C)[C@H]3[C@@](O)(C(=O)OC)[C@H](OC(C)=O)[C@]5(CC)C=CCN6CC[C@]43[C@@H]65)C2)C1; assay: as §2

T1 sequence (P08183 whole entry): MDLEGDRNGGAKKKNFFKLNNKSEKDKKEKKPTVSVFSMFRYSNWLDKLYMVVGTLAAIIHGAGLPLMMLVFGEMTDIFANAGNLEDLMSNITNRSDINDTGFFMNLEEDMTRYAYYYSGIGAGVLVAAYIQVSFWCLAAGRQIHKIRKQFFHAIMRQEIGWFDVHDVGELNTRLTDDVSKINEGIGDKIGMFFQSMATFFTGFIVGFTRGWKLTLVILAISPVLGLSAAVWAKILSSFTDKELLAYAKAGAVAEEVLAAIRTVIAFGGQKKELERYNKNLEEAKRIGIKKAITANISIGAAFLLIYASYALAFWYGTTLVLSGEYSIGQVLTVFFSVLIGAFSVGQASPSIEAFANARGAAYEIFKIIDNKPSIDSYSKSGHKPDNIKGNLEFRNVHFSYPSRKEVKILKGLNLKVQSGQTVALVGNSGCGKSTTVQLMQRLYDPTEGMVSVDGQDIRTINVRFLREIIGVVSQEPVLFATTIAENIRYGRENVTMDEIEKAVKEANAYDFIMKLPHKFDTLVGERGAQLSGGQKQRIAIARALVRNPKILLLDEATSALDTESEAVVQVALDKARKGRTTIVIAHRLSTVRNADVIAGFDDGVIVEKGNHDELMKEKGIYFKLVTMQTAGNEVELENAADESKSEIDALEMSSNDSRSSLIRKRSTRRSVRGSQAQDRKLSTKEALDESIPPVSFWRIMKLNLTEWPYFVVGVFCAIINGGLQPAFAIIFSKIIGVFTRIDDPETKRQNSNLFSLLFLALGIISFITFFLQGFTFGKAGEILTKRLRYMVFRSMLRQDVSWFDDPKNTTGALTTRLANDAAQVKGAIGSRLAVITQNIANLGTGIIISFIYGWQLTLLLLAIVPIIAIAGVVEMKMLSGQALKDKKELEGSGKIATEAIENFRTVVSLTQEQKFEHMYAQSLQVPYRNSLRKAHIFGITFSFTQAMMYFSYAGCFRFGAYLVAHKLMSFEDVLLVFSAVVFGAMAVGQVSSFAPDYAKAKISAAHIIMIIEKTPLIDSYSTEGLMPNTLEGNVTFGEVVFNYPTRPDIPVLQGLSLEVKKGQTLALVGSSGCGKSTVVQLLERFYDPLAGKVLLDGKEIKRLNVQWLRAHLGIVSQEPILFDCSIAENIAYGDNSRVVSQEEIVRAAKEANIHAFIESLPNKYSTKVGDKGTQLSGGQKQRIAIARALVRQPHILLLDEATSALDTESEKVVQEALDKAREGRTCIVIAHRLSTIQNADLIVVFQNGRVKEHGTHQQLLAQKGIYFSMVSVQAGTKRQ

Q: For `COc1cccc2c1C(=O)c1c(O)c3c(c(O)c1C2=O)C[C@@](O)(C(C)=O)C[C@@H]3O[C@H]1C[C@H](N)[C@H](O)[C@H](C)O1` [DAUNORUBICIN], which Activity [1] is on record?
A: The Activity was “substrate [+]”.

Q: And the Activity [2]?
A: The Activity was “is not a substrate [-]”.

Q: What does the source list for `CC[C@H](C)[C@H](NC(=O)[C@@H](C[C@H](O)[C@H](CC(C)C)NC(=O)[C@H](Cc1c[nH]cn1)N(C)C(=O)[C@H](Cc1ccccc1)NC(=O)[C@@H]1CCCN1C(=O)OC(C)(C)C)C(C)C)C(=O)NCc1ccccn1`?
A: Activity [3]: is not an inhibitor [-]; Activity [4]: inhibitor [+]

Q: How did the Activity [5] turn out when `COC(=O)[C@H]1[C@H]2C[C@@H]3c4[nH]c5cc(OC)ccc5c4CCN3C[C@H]2C[C@@H](OC(=O)c2cc(OC)c(OC)c(OC)c2)[C@@H]1OC` [RESERPINE] was run?
A: Its Activity is “inhibitor [+]”.

Q: Which Activity [1] does the source give for `CC(=O)O[C@H]1C(=O)[C@@]2(C)[C@H]([C@H](OC(=O)c3ccccc3)[C@]3(O)C[C@H](OC(=O)[C@H](O)[C@@H](NC(=O)c4ccccc4)c4ccccc4)C(C)=C1C3(C)C)[C@]1(OC(C)=O)CO[C@@H]1C[C@@H]2O` [PACLITAXEL] here?
A: The Activity was “substrate [+]”.

Q: What about the Activity [2] of the same molecule?
A: Its Activity is “is not a substrate [-]”.

Q: Which Activity [1] does the source give for `COC(=O)c1ccccc1-c1c2ccc(=N)cc-2oc2cc(N)ccc12.Cl` [RHODAMINE123] here?
A: The Activity was “substrate [+]”.

Q: And the Activity [2]?
A: The Activity was “is not a substrate [-]”.

Q: For `CC[C@]1(O)C[C@H]2CN(CCc3c([nH]c4ccccc34)[C@@](C(=O)OC)(c3cc4c(cc3OC)N(C=O)[C@H]3[C@@](O)(C(=O)OC)[C@H](OC(C)=O)[C@]5(CC)C=CCN6CC[C@]43[C@@H]65)C2)C1` [VINCRISTINE], which Activity [1] is on record?
A: Its Activity is “substrate [+]”.

Q: And the Activity [2]?
A: Its Activity is “is not a substrate [-]”.

Q: How did the Activity [1] turn out when `CC(=O)OCOC(=O)CN(CC(=O)OCOC(C)=O)Cc1c(OC(C)=O)ccc2c1Oc1c(ccc(OC(C)=O)c1CN(CC(=O)OCOC(C)=O)CC(=O)OCOC(C)=O)C21OC(=O)c2ccccc21` was run?
A: Its Activity is “substrate [+]”.

Q: What about the Activity [2] of the same molecule?
A: Its Activity is “substrate [+]”.

Q: Which Km [6] does the source give for “ATP-dependent translocase ABCB1 (Homo sapiens)” here?
A: Its Km is 99.4 µM.

Q: For `C[C@H]1O[C@@H](O[C@H]2[C@@H](O)C[C@H](O[C@H]3[C@@H](O)C[C@H](O[C@H]4CC[C@@]5(C)[C@H](CC[C@@H]6[C@@H]5C[C@@H](O)[C@]5(C)[C@@H](C7=CC(=O)OC7)CC[C@]65O)C4)O[C@@H]3C)O[C@@H]2C)C[C@H](O)[C@@H]1O` [DIGOXIN], which Activity [2] is on record?
A: The Activity was “is not a substrate [-]”.

B1: Bile salt export pump (Mus musculus) (protein)
chain: MSDSVILRSVKKFGEENHAFESDGFHNNDKKSRLQDKKKGEGARVGFFELFRFSSSKDNWLMFMGSVCALLHGMAQPGMIIVFGILTDIFVEYDIERQELSIPEKVCMNNTIVWINSSFNQNMTNGTSCGLVDINSEVIKFSGIYAGVGVAVLILGYFQIRLWVITGARQIRKMRKFYFRRIMRMEIGWFDCTSVGELNSRFSDDINKIDEAIADQMALFLQRLSTALSGLLLGFYRGWKLTLVILAVSPLIGIGAAVIGLSVAKFTELELKAYAKAGSIADEVLSSIRTVAAFGGENKEVERYEKNLMFAQRWGIWKGMVMGFFTGYMWCLIFFCYALAFWYGSRLVLDEGEYTPGTLIQIFLCVIIAAMNIGNASSCLEIFSTGCSAASSIFQTIDRQPVMDCMSGDGYKLDRIKGEIEFHNVTFHYPSRPEVKILNNLSMVIKPGETTAFVGSSGAGKSTALQLIQRFYDPCEGMVTLDGHDIRSLNIRWLRDQIGIVEQEPVLFSTTIAENIRLGREEATMEDIVQAAKDANAYNFIMALPQQFDTLVGEGGGQMSGGQKQRVAIARALIRKPKILLLDMATSALDNESEAKVQGALNKIQHGHTIISVAHRLSTVRSADVIIGFEHGTAVERGTHEELLERKGVYFMLVTLQSQEDNTHKETGIKGKDTTEGDTPERTFSRGSYQDSLRASIRQRSKSQLSHLSHEPPLAIGDHKSSYEDRKDNDVLVEEVEPAPVRRILKYNISEWPYILVGALCAAINGAVTPIYSLLFSQILKTFSLVDKEQQRSEIYSMCLFFVILGCVSLFTQFLQGYNFAKSGELLTKRLRKFGFKAMLRQDIGWFDDLKNNPGVLTTRLATDASQVQGATGSQVGMMVNSFTNIFVAVLIAFLFNWKLSLVISVFFPFLALSGAVQTKMLTGFASQDKEILEKAGQITNEALSNIRTVAGIGVEGRFIKAFEVELEKSYKTAIRKANVYGLCYAFSQGISFLANSAAYRYGGYLIVYEDLNFSYVFRVVSSIAMSATAVGRTFSYTPSYAKAKISAARFFQLLDRKPPIDVYSGAGEKWDNFQGKIDFIDCKFTYPSRPDIQVLNGLSVSVDPGQTLAFVGSSGCGKSTSIQLLERFYDPDQGTVMIDGHDSKKVNVQFLRSNIGIVSQEPVLFDCSIMDNIKYGDNTKEISVERAIAAAKQAQLHDFVMSLPEKYETNVGIQGSQLSRGEKQRIAIARAIVRDPKILLLDEATSALDTESEKTVQLALDKAREGRTCIVIAHRLSTIQNSDIIAVMSQGVVIEKGTHKKLMDQKGAYYKLVITGAPIS
Q: For B1, which Km [7] is on record?
A: The Km was 38.3 µM.
